From the NIST ThermoML archive (doi:10.1021/je100484n)

Key:
[1] = xn = mol fraction of the nth substance listed; details: 101 kPa, Liquid
[2] = refractive index (Na D-line) (dimensionless); xn = mol fraction of the nth substance listed; details: 101 kPa, Liquid

CC(C)(C)O [2-methylpropan-2-ol] + CCCCCCC
Details | mass density, 303.15 K [kg/m3] | mass density, 308.15 K [kg/m3] | mass density, 313.15 K [kg/m3] | mass density, 318.15 K [kg/m3] | mass density, 323.15 K [kg/m3] | refractive index, 303.15 K | refractive index, 308.15 K | refractive index, 313.15 K | refractive index, 318.15 K | refractive index, 323.15 K
[1], x1 = 0.1006 | 679.898 | 675.406 | 670.867 | 666.278 | 661.645 | – | – | – | – | –
[1], x1 = 0.1502 | 682.8 | 678.262 | 673.669 | 669.017 | 664.315 | – | – | – | – | –
[1], x1 = 0.2 | 685.899 | 681.327 | 676.692 | 671.995 | 667.235 | – | – | – | – | –
[1], x1 = 0.3 | 692.705 | 688.078 | 683.382 | 678.612 | 673.771 | – | – | – | – | –
[1], x1 = 0.4 | 700.298 | 695.628 | 690.882 | 686.056 | 681.144 | – | – | – | – | –
[1], x1 = 0.4998 | 708.705 | 703.995 | 699.207 | 694.329 | 689.366 | – | – | – | – | –
[1], x1 = 0.6 | 718.327 | 713.568 | 708.726 | 703.799 | 698.776 | – | – | – | – | –
[1], x1 = 0.7 | 729.448 | 724.603 | 719.685 | 714.683 | 709.587 | – | – | – | – | –
[1], x1 = 0.7998 | 742.308 | 737.338 | 732.305 | 727.201 | 721.991 | – | – | – | – | –
[1], x1 = 0.8479 | 749.34 | 744.297 | 739.195 | 734.015 | 728.76 | – | – | – | – | –
[1], x1 = 0.8998 | 757.564 | 752.448 | 747.271 | 742.022 | 736.693 | – | – | – | – | –
[1], x1 = 0.9499 | 766.164 | 760.994 | 755.749 | 750.424 | 745.02 | – | – | – | – | –
[1], x1 = 1 | 775.412 | 770.193 | 764.884 | 759.488 | 754.015 | – | – | – | – | –
[2], x1 = 0.1006 | – | – | – | – | – | 1.3814 | 1.37865 | 1.37591 | 1.37312 | 1.37031
[2], x1 = 0.1502 | – | – | – | – | – | 1.38092 | 1.37816 | 1.37539 | 1.37258 | 1.36973
[2], x1 = 0.2 | – | – | – | – | – | 1.38051 | 1.37775 | 1.37496 | 1.37213 | 1.36928
[2], x1 = 0.3 | – | – | – | – | – | 1.37984 | 1.37711 | 1.37431 | 1.37149 | 1.36865
[2], x1 = 0.4 | – | – | – | – | – | 1.37936 | 1.37667 | 1.37387 | 1.37108 | 1.36828
[2], x1 = 0.4998 | – | – | – | – | – | 1.37907 | 1.37641 | 1.3736 | 1.37085 | 1.36807
[2], x1 = 0.6 | – | – | – | – | – | 1.37899 | 1.37633 | 1.3735 | 1.37079 | 1.36801
[2], x1 = 0.7 | – | – | – | – | – | 1.37917 | 1.37649 | 1.37364 | 1.37094 | 1.36814
[2], x1 = 0.7998 | – | – | – | – | – | 1.37969 | 1.37697 | 1.37411 | 1.37139 | 1.36855
[2], x1 = 0.8479 | – | – | – | – | – | 1.38009 | 1.37735 | 1.37449 | 1.37175 | 1.36889
[2], x1 = 0.8998 | – | – | – | – | – | 1.38066 | 1.37791 | 1.37505 | 1.37229 | 1.36942
[2], x1 = 0.9499 | – | – | – | – | – | 1.38136 | 1.3786 | 1.37577 | 1.37297 | 1.37009
[2], x1 = 1 | – | – | – | – | – | 1.38222 | 1.37947 | 1.37667 | 1.37384 | 1.37097
